Assay results taken from patent US20050209157A1, “Short bioactive peptides and methods for their use” (priority 2001, published 2005).
Residues, ends and D or L forms follow the SMILES beside them. No end group written: not given here.

system: Pseudomonas aeruginosa ATCC 9027; assay: Antimicrobial assay I, MIC by OD measurement; type: cell-based; details: 37° C. for 24 hours, absorbance 620 nm

| Molecule | paerug9027 (MIC) |
| --- | --- |
| KAKLAKKALAKLL-NH2 [P149] | 100 µg/mL |
| FALAKKALKKAKKAL-NH2 [P40, FALAKKALKKAKKAL-NH2] | 25 µg/mL |
| FAKLLAKLAKKEL-NH2 [P126] | > (> indicates greater than 200 μg/mL) |
| FAFAKIIAKIAKKII-NH2 [P140] | > (> indicates greater than 200 μg/mL) |
| CC(C)C[C@H](NC(=O)[C@H](C)NC(=O)[C@@H](N)Cc1ccccc1)C(=O)N[C@@H](C)C(N)=O [P183, FALA-NH2] (H-FALA-NH2; N-terminus assumed) | 100 µg/mL |
| FAKKLAKKAKLAKKL-NH2 [P77] | 100 µg/mL |
| FAKKLKKLAKKL-NH2 [P79] | 200 µg/mL |

system: Staphylococcus aureus ATCC 6538; assay: Antimicrobial assay I, MIC by OD measurement; type: cell-based; details: 37° C. for 24 hours, absorbance 620 nm

| Molecule | staph6538 (MIC) |
| --- | --- |
| KAKLAKKALAKLL-NH2 [P149] | 50 µg/mL |
| FALAKKALKKAKKAL-NH2 [P40, FALAKKALKKAKKAL-NH2] | 100 µg/mL |
| FAKLLAKLAKKEL-NH2 [P126] | > (> indicates greater than 200 μg/mL) |
| FAFAKIIAKIAKKII-NH2 [P140] | > (> indicates greater than 200 μg/mL) |
| CC(C)C[C@H](NC(=O)[C@H](C)NC(=O)[C@@H](N)Cc1ccccc1)C(=O)N[C@@H](C)C(N)=O [P183, FALA-NH2] (H-FALA-NH2; N-terminus assumed) | 200 µg/mL |
| FAKKLAKKAKLAKKL-NH2 [P77] | 200 µg/mL |
| FAKKLKKLAKKL-NH2 [P79] | 100 µg/mL |

system: yeast (Saccharomyces cerevisiae); assay: Antimicrobial assay I, yeast assay in RPMI 1640; type: cell-based; details: RPMI 1640 media

| Molecule | yeast (MIC or MFC) |
| --- | --- |
| KAKLAKKALAKLL-NH2 [P149] | 200 µg/mL |
| FALAKKALKKAKKAL-NH2 [P40, FALAKKALKKAKKAL-NH2] | 100 µg/mL |
| FAKLLAKLAKKEL-NH2 [P126] | > (> indicates greater than 200 μg/mL) |
| FAFAKIIAKIAKKII-NH2 [P140] | > (> indicates greater than 200 μg/mL) |
| CC(C)C[C@H](NC(=O)[C@H](C)NC(=O)[C@@H](N)Cc1ccccc1)C(=O)N[C@@H](C)C(N)=O [P183, FALA-NH2] (H-FALA-NH2; N-terminus assumed) | 200 µg/mL |
| FAKKLAKKAKLAKKL-NH2 [P77] | 200 µg/mL |
| FAKKLKKLAKKL-NH2 [P79] | 100 µg/mL |

system: BMKC; assay: Anti-cancer assay, MTT, LD50; type: cell-based; details: BMKC cloned melanoma line, 24 hours with peptide
Source text: (§1) Numbers are LD50 values (μg/mL).

| Molecule | LD50 BMKC |
| --- | --- |
| KAKLAKKALAKLL-NH2 [P149] | > (> indicates greater than 1000) |
| FALAKKALKKAKKAL-NH2 [P40, FALAKKALKKAKKAL-NH2] | > (> indicates greater than 1000) |
| FAKLLAKLAKKEL-NH2 [P126] | > (> indicates greater than 1000) |
| FAFAKIIAKIAKKII-NH2 [P140] | > (> indicates greater than 1000) |
| CC(C)C[C@H](NC(=O)[C@H](C)NC(=O)[C@@H](N)Cc1ccccc1)C(=O)N[C@@H](C)C(N)=O [P183, FALA-NH2] (H-FALA-NH2; N-terminus assumed) | > (> indicates greater than 1000) |
| FAKKLAKKAKLAKKL-NH2 [P77] | 125 µg/mL |
| FAKKLKKLAKKL-NH2 [P79] | 830 µg/mL |

system: H1299; assay: Anti-cancer assay, MTT, LD50; type: cell-based; details: 24 hours with peptide, lung large cell carcinoma
Source text: as §1

| Molecule | H1299 LD50 |
| --- | --- |
| KAKLAKKALAKLL-NH2 [P149] | > (> indicates greater than 1000) |
| FALAKKALKKAKKAL-NH2 [P40, FALAKKALKKAKKAL-NH2] | > (> indicates greater than 1000) |
| FAKLLAKLAKKEL-NH2 [P126] | > (> indicates greater than 1000) |
| FAFAKIIAKIAKKII-NH2 [P140] | > (> indicates greater than 1000) |
| CC(C)C[C@H](NC(=O)[C@H](C)NC(=O)[C@@H](N)Cc1ccccc1)C(=O)N[C@@H](C)C(N)=O [P183, FALA-NH2] (H-FALA-NH2; N-terminus assumed) | > (> indicates greater than 1000) |
| FAKKLAKKAKLAKKL-NH2 [P77] | > (> indicates greater than 1000) |
| FAKKLKKLAKKL-NH2 [P79] | > (> indicates greater than 1000) |

system: HeLaS3; assay: Anti-cancer assay, MTT, LD50; type: cell-based; details: 24 hours with peptide, cervical carcinoma
Source text: as §1

| Molecule | HeLaS3 LD50 |
| --- | --- |
| KAKLAKKALAKLL-NH2 [P149] | > (> indicates greater than 1000) |
| FALAKKALKKAKKAL-NH2 [P40, FALAKKALKKAKKAL-NH2] | > (> indicates greater than 1000) |
| FAKLLAKLAKKEL-NH2 [P126] | > (> indicates greater than 1000) |
| FAFAKIIAKIAKKII-NH2 [P140] | 285 µg/mL |
| CC(C)C[C@H](NC(=O)[C@H](C)NC(=O)[C@@H](N)Cc1ccccc1)C(=O)N[C@@H](C)C(N)=O [P183, FALA-NH2] (H-FALA-NH2; N-terminus assumed) | > (> indicates greater than 1000) |
| FAKKLAKKAKLAKKL-NH2 [P77] | > (> indicates greater than 1000) |
| FAKKLKKLAKKL-NH2 [P79] | > (> indicates greater than 1000) |

system: MCF7; assay: Anti-cancer assay, MTT, LD50; type: cell-based; details: MCF7 breast adenocarcinoma line, MTT, 24 hours with peptide
Source text: as §1

| Molecule | LD50 MCF7 |
| --- | --- |
| KAKLAKKALAKLL-NH2 [P149] | > (> indicates greater than 1000) |
| FALAKKALKKAKKAL-NH2 [P40, FALAKKALKKAKKAL-NH2] | 760 µg/mL |
| FAKLLAKLAKKEL-NH2 [P126] | > (> indicates greater than 1000) |
| FAFAKIIAKIAKKII-NH2 [P140] | > (> indicates greater than 1000) |
| CC(C)C[C@H](NC(=O)[C@H](C)NC(=O)[C@@H](N)Cc1ccccc1)C(=O)N[C@@H](C)C(N)=O [P183, FALA-NH2] (H-FALA-NH2; N-terminus assumed) | > (> indicates greater than 1000) |
| FAKKLAKKAKLAKKL-NH2 [P77] | > (> indicates greater than 1000) |
| FAKKLKKLAKKL-NH2 [P79] | 540 µg/mL |

system: PC3; assay: Anti-cancer assay, MTT, LD50; type: cell-based; details: 24 hours with peptide, prostate adenocarcinoma
Source text: as §1

| Molecule | PC3 LD50 |
| --- | --- |
| KAKLAKKALAKLL-NH2 [P149] | > (> indicates greater than 1000) |
| FALAKKALKKAKKAL-NH2 [P40, FALAKKALKKAKKAL-NH2] | 435 µg/mL |
| FAKLLAKLAKKEL-NH2 [P126] | > (> indicates greater than 1000) |
| FAFAKIIAKIAKKII-NH2 [P140] | > (> indicates greater than 1000) |
| CC(C)C[C@H](NC(=O)[C@H](C)NC(=O)[C@@H](N)Cc1ccccc1)C(=O)N[C@@H](C)C(N)=O [P183, FALA-NH2] (H-FALA-NH2; N-terminus assumed) | > (> indicates greater than 1000) |
| FAKKLAKKAKLAKKL-NH2 [P77] | > (> indicates greater than 1000) |
| FAKKLKKLAKKL-NH2 [P79] | > (> indicates greater than 1000) |

system: SW480; assay: Anti-cancer assay, MTT, LD50; type: cell-based; details: SW480 colon adenocarcinoma line, 24 hours with peptide
Source text: as §1

| Molecule | LD50 SW480 |
| --- | --- |
| KAKLAKKALAKLL-NH2 [P149] | > (> indicates greater than 1000) |
| FALAKKALKKAKKAL-NH2 [P40, FALAKKALKKAKKAL-NH2] | > (> indicates greater than 1000) |
| FAKLLAKLAKKEL-NH2 [P126] | > (> indicates greater than 1000) |
| FAFAKIIAKIAKKII-NH2 [P140] | > (> indicates greater than 1000) |
| CC(C)C[C@H](NC(=O)[C@H](C)NC(=O)[C@@H](N)Cc1ccccc1)C(=O)N[C@@H](C)C(N)=O [P183, FALA-NH2] (H-FALA-NH2; N-terminus assumed) | > (> indicates greater than 1000) |
| FAKKLAKKAKLAKKL-NH2 [P77] | > (> indicates greater than 1000) |
| FAKKLKKLAKKL-NH2 [P79] | > (> indicates greater than 1000) |

system: human red blood cells (RBC); assay: in vitro; type: cell-based; details: hemolytic assay, concentration at 50% hemolysis, 1 hour at 37° C.

| Molecule | LD50 |
| --- | --- |
| KAKLAKKALAKLL-NH2 [P149] | > (> indicates greater than 1000) |
| FALAKKALKKAKKAL-NH2 [P40, FALAKKALKKAKKAL-NH2] | > (> indicates greater than 1000) |
| FAKLLAKLAKKEL-NH2 [P126] | > (> indicates greater than 1000) |
| FAFAKIIAKIAKKII-NH2 [P140] | > (> indicates greater than 1000) |
| CC(C)C[C@H](NC(=O)[C@H](C)NC(=O)[C@@H](N)Cc1ccccc1)C(=O)N[C@@H](C)C(N)=O [P183, FALA-NH2] (H-FALA-NH2; N-terminus assumed) | > (> indicates greater than 1000) |
| FAKKLAKKAKLAKKL-NH2 [P77] | > (> indicates greater than 1000) |
| FAKKLKKLAKKL-NH2 [P79] | > (> indicates greater than 1000) |

system: WI38; assay: not given; details: MTT, 24 hours with peptide; normal fibroblast line

| Molecule | WI38 LD50 |
| --- | --- |
| KAKLAKKALAKLL-NH2 [P149] | > (> indicates greater than 1000) |
| FALAKKALKKAKKAL-NH2 [P40, FALAKKALKKAKKAL-NH2] | > (> indicates greater than 1000) |
| FAKLLAKLAKKEL-NH2 [P126] | > (> indicates greater than 1000) |
| FAFAKIIAKIAKKII-NH2 [P140] | > (> indicates greater than 1000) |
| CC(C)C[C@H](NC(=O)[C@H](C)NC(=O)[C@@H](N)Cc1ccccc1)C(=O)N[C@@H](C)C(N)=O [P183, FALA-NH2] (H-FALA-NH2; N-terminus assumed) | > (> indicates greater than 1000) |
| FAKKLAKKAKLAKKL-NH2 [P77] | > (> indicates greater than 1000) |
| FAKKLKKLAKKL-NH2 [P79] | > (> indicates greater than 1000) |

same assay, conditions: WI38 normal lung fibroblast line, MTT, 24 hours with peptide

| Molecule | LD50 WI38 |
| --- | --- |
| KAKLAKKALAKLL-NH2 [P149] | > (> indicates greater than 1000) |
| FALAKKALKKAKKAL-NH2 [P40, FALAKKALKKAKKAL-NH2] | > (> indicates greater than 1000) |
| FAKLLAKLAKKEL-NH2 [P126] | > (> indicates greater than 1000) |
| FAFAKIIAKIAKKII-NH2 [P140] | > (> indicates greater than 1000) |
| CC(C)C[C@H](NC(=O)[C@H](C)NC(=O)[C@@H](N)Cc1ccccc1)C(=O)N[C@@H](C)C(N)=O [P183, FALA-NH2] (H-FALA-NH2; N-terminus assumed) | > (> indicates greater than 1000) |
| FAKKLAKKAKLAKKL-NH2 [P77] | > (> indicates greater than 1000) |
| FAKKLKKLAKKL-NH2 [P79] | > (> indicates greater than 1000) |
